# Patent US20070092577A1, “Dietary calcium for reducing the production of reactive oxygen species” (University of Tennessee Research Foundation, priority 2005, published 2007)
# Columns and labels:
# TNFα [1] = assay: TNFα expression in RAW 264 macrophages; type: cell-based; details: added to calcitriol; macrophages cultured alone
# Protocol: (§1) RAW 264 macrophages and 3T3-L1 preadipocytes (American Type Culture Collection) were incubated at a density of 8000 cells/cm2 (10 cm2 dish) and grown in Dulbecco's modified Eagle's medium (DMEM) containing 10% FBS and antibiotics (adipocyte medium) at 37° C. in 5% CO2 in air. Confluent 3T3-L1 preadipocytes were induced to differentiate with a standard differentiation medium consisting of DMEM-F10 (1:1, vol/vol) medium supplemented with 1% FBS, 1 μM dexamethasone, IBMX (0.5 mM) and antibiotics (1% Penicillin-Streptomycin). Preadipocytes were maintained in this differentiation medium for 3 days and subsequently cultured in adipocyte medium. Cultures were re-fed every 2-3 days to allow 90% cells to reach fully differentiation for 3T3-L1 adipocytes or grow to a confluence for RAW 264 before conducting chemical treatment.
# (§2) Human adipocytes (Zen-Bio, Inc.), 3T3-L1 adipocytes, RAW264 macrophages were obtained and co-cultured by using transwell inserts with 0.4 μm porous membranes (Corning) to separate adipocytes and macrophages. All data are expressed as mean±SEM. Data were evaluated for statistical significance by analysis of one-way or two-way variance (ANOVA; means with different letter differ, p<0.05).
# (§3) Adipocyte and muscle 18s, CD14, TNFα, MIP, M-CSF, IL-6 and MCP-1 were quantitatively measured using a Smart Cycler Real Time PCR System (Cepheid, Sunnyvale, Calif.) with a TaqMan 1000 Core Reagent Kit (Applied Biosystems, Branchburg, N.J.). The primers and probe sets were obtained from Applied Biosystems TaqMan® Assays-on-Demand™ Gene Expression primers and probe set collection according to manufacture's instruction. […] Reactions of quantitative RT-PCR for standards and unknown samples were also performed according to the instructions of Smart Cycler System (Cepheid, Sunnyvale, Calif.) and TaqMan Real Time PCR Core Kit (Applied Biosystems, Branchburg, N.J.). The mRNA quantitation for each sample was further normalized using the corresponding 18s quantitation.
# IL-6 = IL-6 expression in RAW 264 macrophages; type: cell-based; details: added to calcitriol; macrophages cultured alone
# Protocol: as §1, §2, §3
# 3T3-L1 adipocytes = assay: DNA synthesis / cell proliferation (CyQUANT); type: cell-based, murine; details: 48 hours
# Protocol: (§4) 3T3-L1 preadipocytes were incubated at a density of 8000 cells/cm^2 (10 cm^2 dish) and grown in Dulbecco's modified Eagle's medium (DMEM) containing 10% FBS and antibiotics (adipocyte medium) at 37° C. in 5% CO2 in air. Confluent preadipocytes were induced to differentiate with a standard differentiation medium consisting of DMEM-F 10 (1:1, vol/vol) medium supplemented with 1% FBS, 1 μM dexamethasone, IBMX (0.5 mM) and antibiotics (1% Penicillin-Streptomycin). Preadipocytes were maintained in this differentiation medium for 3 days and subsequently cultured in adipocyte medium. Cultures were re-fed every 2-3 days to allow 90% of cells to reach full differentiation before conducting chemical treatment. Chemicals were freshly diluted in adipocyte medium before treatment. Cells were washed with fresh adipocyte medium, re-fed with medium containing the different treatments, and incubated at 37° C. in 5% CO2 in air before analysis. Cell viability was measured via trypan blue exclusion. Cells were plated in DMEM with different treatment in duplicate in 96-well plates. After 48 h, a CyQUANT Cell Proliferation Kit (Molecular Probes, Eugene, Oreg.) was used following the manufacturer's protocol a microplate fluorometer (Packard Instrument Company, Inc., Downers Grove, Ill.) was used to measure CyQUANT fluorescence. Cell viability was determined by Trypan blue exclusion examination.
# [2] = test system: ROS production in cultured 3T3-L1 adipocytes; assay: ROS production in cultured adipocytes (H2-DCFDA); type: cell-based, murine; details: 48 hours
# Protocol: as §4, with “exclusion. […]” for “exclusion.”, “loaded” for “plated in DMEM”, “H2-DCFDA (2 μmol/L) 30 minute before the end of the incubation period (48 h).” for “different treatment in duplicate in 96-well plates.”, “washing twice with PBS, cells were scraped and disrupted by sonication on ice (20s). Fluorescence (emission 543 nm or 527 nm) and DNA content were then measured as described previously. The intensity of fluorescence” for “48 h, a CyQUANT Cell Proliferation Kit (Molecular Probes, Eugene, Oreg.)”, “expressed as arbitary units per ng DNA.” for “used following the manufacturer's protocol a microplate fluorometer (Packard Instrument Company, Inc., Downers Grove, Ill.) was used to measure CyQUANT fluorescence. Cell viability was determined by Trypan blue exclusion examination.”
# [3] = test system: Mitochondrial potential in cultured wild-type 3T3-L1 adipocytes; assay: Mitochondrial membrane potential (JC-1); type: cell-based, murine; details: GDP 100 μmol/L with H2O2 100 nmol/L, 48 hours
# Protocol: (§5) 3T3-L1 preadipocytes were incubated at a density of 8000 cells/cm^2 (10 cm^2 dish) and grown in Dulbecco's modified Eagle's medium (DMEM) containing 10% FBS and antibiotics (adipocyte medium) at 37° C. in 5% CO2 in air. Confluent preadipocytes were induced to differentiate with a standard differentiation medium consisting of DMEM-F 10 (1:1, vol/vol) medium supplemented with 1% FBS, 1 μM dexamethasone, IBMX (0.5 mM) and antibiotics (1% Penicillin-Streptomycin). Preadipocytes were maintained in this differentiation medium for 3 days and subsequently cultured in adipocyte medium. Cultures were re-fed every 2-3 days to allow 90% of cells to reach full differentiation before conducting chemical treatment. Chemicals were freshly diluted in adipocyte medium before treatment. […] Cell viability was measured via trypan blue exclusion.
# Mitochondrial membrane potential was analyzed fluorometrically with a lipophilic cationic dye JC-1 (5,5′,6,6′-tetrachloro-1,1′,3,3′-tetraethylbenzimidazol carbocyanine iodide) using a mitochondrial potential detection kit (Biocarta, San Diego, Calif.). Mitochondrial potential was determined as the ratio of red fluorescence (excitation 550 nm, emission 600 mn) and green fluorescence (excitation 485 nm, emission 535 nm) using a fluorescence microplate reader.
# NADPH oxidase = NADPH oxidase expression in 3T3-L1 adipocytes; type: cell-based, murine; details: added to glucose 30 mmol/L, 48 hours; nifedipine 10 μmol/L
# Protocol: as §5, with “exclusion. Adipocyte 18s, cyclin A, NADPH oxidase, and UCP2 were quantitatively measured using a Smart Cycler Real Time PCR System (Cepheid, Sunnyvale, Calif.) with a TaqMan 1000 Core Reagent Kit (Applied Biosystems, Branchburg, N.J.). […] Reactions of quantitative RT-PCR for standards and unknown samples were also performed according to the instructions of Smart Cycler System (Cepheid, Sunnyvale, Calif.) and TaqMan Real Time PCR Core Kit (Applied Biosystems, Branchburg, N.J.). The mRNA quantitation for each sample was further normalized using the corresponding 18s quantitation.” for “exclusion.”
# cyclin A = assay: Cyclin A expression in 3T3-L1 adipocytes; type: cell-based, murine; details: added to glucose 30 mmol/L, 48 hours; nifedipine 10 μmol/L
# Protocol: as §5, with “exclusion. Adipocyte 18s, cyclin A, NADPH oxidase, and UCP2 were quantitatively measured using a Smart Cycler Real Time PCR System (Cepheid, Sunnyvale, Calif.) with a TaqMan 1000 Core Reagent Kit (Applied Biosystems, Branchburg, N.J.). […] Reactions of quantitative RT-PCR for standards and unknown samples were also performed according to the instructions of Smart Cycler System (Cepheid, Sunnyvale, Calif.) and TaqMan Real Time PCR Core Kit (Applied Biosystems, Branchburg, N.J.). The mRNA quantitation for each sample was further normalized using the corresponding 18s quantitation.” for “exclusion.”
# TNFα [4] = assay: TNFα expression in differentiated 3T3-L1 adipocytes; type: cell-based, mouse; details: nifedipine 10 μmol/L alone, 48 h
# Protocol: 3T3-L1 pre-adipocytes were incubated at a density of 8000 cells/cm^2 (10 cm^2 dish) and grown in Dulbecco's modified Eagle's medium (DMEM) containing 10% FBS and antibiotics (adipocyte medium) at 37° C. in 5% CO2 in air. Confluent pre-adipocytes were induced to differentiate with a standard differentiation medium consisting of DMEM-F10 (1:1, vol/vol) medium supplemented with 1% fetal bovine serum (FBS), 1 μM dexamethasone, isobutylmethylxanthine (IBMX) (0.5 mM) and antibiotics (1% Penicillin-Streptomycin). Pre-adipocytes were maintained in this differentiation medium for 3 days and subsequently cultured in adipocyte medium. Cultures were re-fed every 2-3 days to allow 90% cells to reach fully differentiation before conducting chemical treatment. […] Cell viability was measured via trypan blue exclusion. Adipocyte and muscle 18s, TNFα, IL-6, IL-8, IL-15 and adiponectin were quantitatively measured using a smart cycler real-time PCR system (Cepheid, Sunnyvale, Calif.) with a TaqMan 1000 Core Reagent Kit (Applied Biosystems, Branchburg, N.J.). […] Reactions of quantitative RT-PCR for standards and unknown samples were also performed according to the instructions of Smart Cycler System (Cepheid, Sunnyvale, Calif.) and TaqMan Real Time PCR Core Kit (Applied Biosystems, Branchburg, N.J.). The mRNA quantitation for each sample was further normalized using the corresponding 18s quantitation.
# IL-15 = IL-15 expression in differentiated Zen-bio human adipocytes; type: cell-based; details: 10 nmol/L 1α, 25-(OH)2-D3 or 10 μmol/L nifedipine, 48 h; p=0.473
# Protocol: (§6) Human pre-adipocytes used in this study were supplied by Zen-Bio (Research Triangle, N.C.). […] The cells are isolated from the stromal vascular fraction of human subcutaneous adipose tissue and differentiated in vitro as follows: […] Preadipocytes were maintained in this differentiation medium for 3 days and subsequently cultured in adipocyte medium in which BRL49653 and MIX were omitted. Cultures were re-fed every 2-3 days till fully differentiated. Cells were incubated in serum free medium overnight before chemical treatment. Chemicals were freshly diluted in adipocyte medium before treatment. […] Cell viability was measured via trypan blue exclusion. Adipocyte and muscle 18s, TNFα, IL-6, IL-8, IL-15 and adiponectin were quantitatively measured using a smart cycler real-time PCR system (Cepheid, Sunnyvale, Calif.) with a TaqMan 1000 Core Reagent Kit (Applied Biosystems, Branchburg, N.J.). […] Reactions of quantitative RT-PCR for standards and unknown samples were also performed according to the instructions of Smart Cycler System (Cepheid, Sunnyvale, Calif.) and TaqMan Real Time PCR Core Kit (Applied Biosystems, Branchburg, N.J.). The mRNA quantitation for each sample was further normalized using the corresponding 18s quantitation.
# adiponectin = assay: Adiponectin expression in differentiated Zen-bio human adipocytes; type: cell-based; details: 10 nmol/L 1α, 25-(OH)2-D3 or 10 μmol/L nifedipine, 48 h; p=0.377
# Protocol: as §6
# [5] = added to glucose 30 mmol/L, nifedipine 10 μmol/L
smiles,measurement,setting,value
O=[N+]([O-])c1ccc(O)c([N+](=O)[O-])c1 [DNP],effect on calcitriol stimulated TNFα expression,TNFα [1],blocked
same,effect on calcitriol stimulated IL-6 expression,IL-6,blocked
Nc1nc2c(ncn2[C@@H]2O[C@H](COP(=O)(O)OP(=O)(O)O)[C@@H](O)[C@H]2O)c(=O)[nH]1 [GDP],augmentation of the stimulation of cell proliferation by H2O2,"3T3-L1 adipocytes; GDP 100 μmol/L with H2O2 100 nmol/L, p<0.005",183%
same,effect on glucose induced DNA synthesis,3T3-L1 adipocytes; [5],augmented
same,increase of ROS production compared to H2O2 treatment alone,"[2]; GDP 100 μmol/L with H2O2 100 nmol/L, p<0.01",24%
same,effect on high glucose induced ROS production,[2]; [5],further stimulated ROS production compared to glucose alone
same,augmentation of the H2O2 effect on mitochondrial potential,[3],10%
same,effect on NADPH oxidase expression,NADPH oxidase,suppressed
same,effect on glucose stimulated cyclin A expression,cyclin A,augmented
COC(=O)C1=C(C)NC(C)=C(C(=O)OC)C1c1ccccc1[N+](=O)[O-] [nifedipine],inhibition of H2O2 induced ROS production,"[2]; nifedipine 10 μmol/L with H2O2 100 nmol/L, p<0.003",25%
same,"effect on TNFα expression, alone",TNFα [4],no effect
same,effect on IL-15 expression,IL-15,no effect
same,effect on adiponectin expression,adiponectin,no effect
